Data set [1] deals with Flz resistant strains of C. albicans. In words: Broth microdilution MIC/MFC, range over strains. Format: cell-based, Candida albicans. On the procedure: (§1) In this work, nine strains of C. albicans procured from Charlotte Maxeke Johannesburg Academic Hospital under ethical clearance number M000402 were employed (Table 1). All the C. albicans strains were preserved at −70° C. deep freezer in 50% (v/v) anhydrous glycerol (Sigma-Aldrich St. Louis, MO, U.S.A.). For conducting experiments, cultures were revived in Sabouraud Dextrose broth (SDB; Merck, Germany) at 37° C. and 120 rpm for 24 h. Additionally, the RPMI 1640 medium and MOPS (Sigma-Aldrich, USA) were prepared as described by the Clinical and Laboratory Standards Institute (CLSI).
(§2) The activity of C1 against Candida species (n=9) was first estimated in terms of minimum inhibitory concentration (MIC) and minimum fungicidal concentration (MFC). […] Briefly, stock solutions of Flz (used as reference; Sigma-Aldrich St. Louis, MO, U.S.A.) and the synthesized compound was prepared in 1% dimethyl sulfoxide (DMSO; Sigma-Aldrich St. Louis, MO, U.S.A.) and the test concentrations were formulated in RPMI 1640-MOPS medium. […] Growth was quantified by reading the optical density at 620 nm in a UV-1800 SHIMADZU spectrophotometer (Shimadzu Corporation, Japan). The MIC was determined as the lowest concentration that inhibited the growth of Candida strains. […]

In data set [2] the test system is Flz susceptible strains of C. albicans. Briefly: Broth microdilution MIC/MFC, range over strains. Format: cell-based, Candida albicans. On the procedure:
as §1, §2

Data set [3] concerns cytochrome c oxidase. Briefly: Cytochrome c oxidase activity assay. The format is cell-based. As for the experimental part: To examine the effect of C1 on the induction of cellular apoptosis in C. albicans cells, crucial apoptotic markers were observed. For this purpose, C. albicans 4251 and C. albicans 5112 cells were subjected to protoplast preparation by utilizing a method described previously by Srivastava et al. in 2020 through their research study. Briefly, cells were grown overnight and were exposed for 4 h with different concentrations of C1 (0.5×MIC and 1×MIC) and H2O2 (positive control) whereas, untreated cells were used as a negative control. Later on, the cells were washed and incubated for 10 min at room temperature in protoplast buffer-1 (1M sorbitol, 0.05M tris base, 0.01M MgCl2, 0.03M DTT, pH 7.4). The cells were spun at 1500 rpm for 5 min and the pellet was resuspended in protoplast buffer-2 (1M sorbitol, 0.05M tris base, 0.01M MgCl2, 0.001M DTT, pH 7.4) supplemented with lyticase enzyme (1 μg/mL) and incubated for 1 h at room temperature. Afterwards, the cell suspension was again centrifuged, and the pellet was resuspended and incubated for 20 min at room temperature in protoplast buffer-3 (1M sorbitol, 0.05M tris base, 0.01M MgCl2, pH 7.4). A final washing (1500 rpm for 5 min) was given to the cells and the pellet consisting of C. albicans protoplasts was resuspended in fresh PBS and was stored at 4° C. until further use.
The role of C1 in the modulating cytochrome c oxidase activity in C. albicans was investigated. The mitochondria from C. albicans 4251 and C. albicans 5112 were isolated using Yeast Mitochondria Isolation Kit—MITOISO3 (Sigma-Aldrich St. Louis, MO, U.S.A.) and then the Cytochrome c oxidase assay kit (ScienCell, Cat. No. 8278, CA, USA) was used to detect the cytochrome c oxidase activity in the cells following the manufacturer's instructions. Briefly, the C. albicans protoplasts were homogenized and the homogenate was resuspended and centrifuged in storage buffer (1×, 1 mL) at 6,500×g at 4° C. (10 min). The supernatant was discarded and resuspended in 200 μL of storage buffer (1×). The TCA Lowry method was utilized for determining the protein concentration present in the sample. Later on, the estimation of cytochrome c oxidase activity was done by preparing an assay mixture (Assay Buffer, 940 μL; n-dodecyl β-D-maltoside solution, 10 μL; mitochondrial protein, 2 μg) in a cuvette and then adding cytochrome c substrate solution (50 μL, provided in the kit) to it. Any change in absorbance was measured on a kinetic program (550 nm; every 30 seconds with an interval of 5 seconds) by using a spectrophotometer (UV-1800, Shimadzu Corporation, Japan).

The subject of data set [4] is horse red blood cells. In words: Haemolytic activity. Format: cell-based. To be noted: horse RBC. As for the experimental part: To determine the cytotoxicity of C1, horse red blood cells (H-RBC; NHLS, Johannesburg, South Africa) were used. The horse blood was centrifuged, and the cell pellet was secured and washed three times with cold PBS. The final pellet was dissolved in cold PBS to make a 10% H-RBC solution. From this solution, 15 mL of 1% H-RBC solution was again prepared with the help of PBS. Then, 1 mL was aliquoted and added to various concentrations (0.5×MIC, 1×MIC, 2×MIC and 4×MIC) of C1 in 2 mL Eppendorf tubes. The negative control consisted of the RBC solution mixed with PBS; while the positive control consisted of RBC mixed with 1% Triton X-100. The samples were incubated for 4 h at 37° C. Following incubation, the samples were centrifuged at 2000 rpm for 10 minutes and supernatant (200 μL) was transferred to a flat-bottomed 96-well microtiter plate and the absorbance was measured at 450 nm using a SpectraMax ID3 Multimode Plate Reader (Molecular Devices, LLC., USA). The percentage of haemolysis was calculated by using the following equation: […]

With `Brc1ccc([O][Co][O]c2ccc(Br)cc2C=Nc2ccc3c(c2)OCCO3)c(C=Nc2ccc3c(c2)OCCO3)c1` [Complex C1, [Co(L)2]], the MIC value range in data set [1] was in the range of 9.76 to 19.53 µg/mL; in data set [2], 1.22 to 4.88 µg/mL. The “average percent decrease in cytochrome c oxidase activity” value is 14.2% in data set [3] (Flz resistant strain (C. albicans 5112), 0.5×MIC); 47.53% in data set [3] (Flz resistant strain (C. albicans 5112), 1×MIC); 22.61% in data set [3] (Flz sensitive strain (C. albicans 4251), 0.5×MIC); 51.3% in data set [3] (Flz sensitive strain (C. albicans 4251), 1×MIC). In addition, the “haemolytic activity (in words)” value in data set [4] was “considerably less haemolytic activity”. This compound gave a haemolytic activity in data set [4] (4×MIC, 4 h, 37° C.) of 10%.
